Results on 28 compounds are retold here after patent publication US20050250784A1 (Miikana Therapeutics Corporation, priority 2004, published 2005).

This assay deals with MCF7 cells. As to the kind of experiment: Whole cell cytotoxicity assay: Sulforhodamine B. It counts as cell-based, Human. As to conditions: compound concentration 100 μM, MCF7 cell growth, 48 hours with drug, SRB staining; for inhibition at 100 µM: Homo sapiens. The procedure:
The following procedure can be found on the Developmental Therapeutics Program NCI/NIH web site at http://dtp.nci.nih.gov/brancehes/btb/ivclsp.html.
1. Human tumor cell lines of HT29, A549 and MCF7 are grown in DMEM containing 10% fetal bovine serum and 2 mM L-glutamine. Cells are plated in a 96 well plate at a density of 5000 cells per well in 100 uL of growth medium and incubated at 37° C., 5% CO2, for 24 hours prior to the addition of experimental compounds.
2. Experimental drugs are solubilized in DMSO for a final concentration of 20 mM immediately prior to use. Drugs are further diluted in growth media for a total of nine drug concentrations and a growth control. At the 24 hour time point, one plate of cells is fixed in situ with TCA as a measurement of the cell population at time zero, or the time of drug addition.
3. The plates are further incubated with drug for an additional 48 hours.
4. The cells are fixed in situ by gently aspirating off the culture media and then adding 50 uL of ice cold 10% TCA per well and incubated at 4° C. for 60 minutes. The plates are washed with tap water five times and allowed to air dry for 5 minute.
5. 50 ul of a 0.4% (w/v) Sulforhodamine B solution in 1% (v/v) acetic acid is added per well and incubated for 30 minutes at room temperature.
6. Following staining, plates are washed five times with 1% acetic acid to remove any unbound dye and then allowed to air dry for 5 minutes.
7. Stain is solubilized with 100 uL of 10 mM Tris pH 10.5 per well and placed on an orbital rotator for 5 minutes.
8. Absorbance is read at 570 nm.

On to `Cc1ccc(S(=O)(=O)N2CCN(c3ncc(C(=O)NO)s3)CC2)c(CN2CCCC2)c1` [Example 327, 2-(4-{[2-(pyrrolidin-1-ylmethyl)-4-methylphenyl]sulfonyl}piperazin-1-yl)-1,3-thiazole-5-carboxylic acid hydroxyamide], for which at 100 µM the inhibition was 92%. Same read-out and setting: the value for `Cc1ccc(S(=O)(=O)N2CCN(c3ncc(C(=O)NO)s3)CC2)cc1[N+](=O)[O-]` [Example 324, 2-{4-[(4-methyl-3-nitrophenyl)sulfonyl]piperazin-1-yl}-1,3-thiazole-5-carboxylic acid hydroxyamide] was 96%. Still for that read-out and setting: the result for `O=C(NO)c1cnc(N2CCN(S(=O)(=O)c3ccc(-c4csc(CN5CCCC5)c4)cc3)CC2)s1` [Example 307, 2-{4-[4-(2-(pyrrolidin-1-ylmethyl)thien-4-yl)phenylsulfonyl]piperazin-1-yl}-1,3-thiazole-5-carboxylic acid hydroxyamide] reads 99%.

For the compound `O=C(NO)c1cnc(N2CCN(S(=O)(=O)c3ccc(N4CCCC4)c(F)c3)CC2)s1` [Example 328, 2-(4-{[3-fluoro-4-(pyrrolidin-1-yl)phenyl]sulfonyl}piperazin-1-yl)-1,3-thiazole-5-carboxylic acid hydroxyamide], the inhibition (as a rule, the percentage by which the read-out fell short of the control) at 100 µM is 96%. Regarding “2-[4-(naphtha-2-yl-4-sulfonyl)-piperazin-1-yl]-thiazole-5-carboxylic acid hydroxyamide [Example 201]”, the “% inhibition MCF7 cells @ 100 μM” value is 95%. Turning to `O=C(NO)c1cnc(N2CCN(S(=O)(=O)c3cccc(OC(F)F)c3)CC2)s1` [Example 323, 2-(4-{[3-(difluoromethoxy)phenyl]sulfonyl}piperazin-1-yl)-1,3-thiazole-5-carboxylic acid hydroxyamide], the inhibition at 100 µM worked out at 100%. Regarding `O=C(NO)c1cnc(N2CCN(S(=O)(=O)c3ccc(N4CCOCC4)cc3)CC2)s1` [Example 330, 2-(4-{[4-(morpholin-4-yl)phenyl]sulfonyl}piperazin-1-yl)-1,3-thiazole-5-carboxylic acid hydroxyamide], the inhibition at 100 µM was determined as 91%. On the same count and under the same terms, the result for `O=C(NO)c1cnc(N2CCN(S(=O)(=O)c3ccc(-c4cccc(CN(CCO)CCO)c4)cc3)CC2)s1` [Example 312, 2-{4-[3′-{[bis(2-hydroxyethyl)amino]methyl}-1,1′-biphenylsulfonyl]piperazin-1-yl}-1,3-thiazole-5-carboxylic acid hydroxyamide] reads 85%; that for `O=C(NO)c1cnc(N2CCN(S(=O)(=O)c3ccc(-c4cccc(CN5CCNCC5)c4)cc3)CC2)s1` [Example 315, 2-{4-[3′-((piperazin-1-yl)methyl)-1,1′-biphenylsulfonyl]piperazin-1-yl}-1,3-thiazole-5-carboxylic acid hydroxyamide], 95%. Same read-out and setting: the result for `CN(C)Cc1ccsc1-c1ccc(S(=O)(=O)N2CCN(c3ncc(C(=O)NO)s3)CC2)cc1` [Example 310] reads 98%; that for `CN(C)Cc1ccoc1-c1ccc(S(=O)(=O)N2CCN(c3ncc(C(=O)NO)s3)CC2)cc1` [Example 308, 2-(4-{4-[3-((dimethylamino)-methyl)-2-furyl]phenylsulfonyl}piperazin-1-yl)-1,3-thiazole-5-carboxylic acid hydroxyamide], 99%. Same read-out and setting: the result for `C=CCN(CC=C)Cc1cccc(-c2ccc(S(=O)(=O)N3CCN(c4ncc(C(=O)NO)s4)CC3)cc2)c1` [Example 317] reads 66%. “2-(4-{4-[(3-(pyrrolidin-1-ylmethyl)-2-furyl]phenylsulfonyl}piperazin-1-yl)-1,3-thiazole-5-carboxylic acid hydroxyamide [Example 283]”: the “% inhibition MCF7 cells @ 100 μM” value amounted to 98%. Consider `CCCCN(C)Cc1cccc(-c2ccc(S(=O)(=O)N3CCN(c4ncc(C(=O)NO)s4)CC3)cc2)c1` [Example 314, 2-{4-[3′-{[(butyl)(methyl)amino]methyl}-1,1′-biphenylsulfonyl]piperazin-1-yl}-1,3-thiazole-5-carboxylic acid hydroxyamide], for which at 100 µM the inhibition was 97%. The same measure, in the same setting: the result for `O=C(NO)c1cnc(N2CCN(S(=O)(=O)c3ccc(-c4cccc(CN5CC=CCC5)c4)cc3)CC2)s1` [Example 313, 2-{4-[3′-(3,6-dihydropyridin-1(2H)-ylmethyl)-1,1-biphenylsulfonyl]piperazin-1-yl}-1,3-thiazole-5-carboxylic acid hydroxyamide] reads 92%; that for `O=C(NO)c1cnc(N2CCN(S(=O)(=O)c3ccc(-c4ccccc4CN4CCCC4)cc3)CC2)s1` [Example 321, 2-{4-[2′-{pyrrolidin-1-ylmethyl}-1,1′-biphenylsulfonyl]piperazin-1-yl]-1,3-thiazole-5-carboxylic acid hydroxyamide], 95%; that for `O=C(NO)c1cnc(N2CCN(S(=O)(=O)c3ccc(N4CCCCC4)cc3)CC2)s1` [Example 329, 2-(4-{[4-(piperidin-1-yl)phenyl]sulfonyl}piperazin-1-yl)-1,3-thiazole-5-carboxylic acid hydroxyamide], 97%.

For `COc1ccc(OC)c(S(=O)(=O)N2CCN(c3ncc(C(=O)NO)s3)CC2)c1` [Example 325, 2-{4-[(2,5-dimethoxyphenyl)sulfonyl]piperazin-1-yl}-1,3-thiazole-5-carboxylic acid hydroxyamide], testing at 100 µM gave an inhibition of 98%. The same measure, in the same setting: the value for `CN(CCO)Cc1cccc(-c2ccc(S(=O)(=O)N3CCN(c4ncc(C(=O)NO)s4)CC3)cc2)c1` [Example 311, 2-{4-[3′-{[(2-hydroxyethyl)(methyl)amino]methyl}-1,1′-biphenylsulfonyl]piperazin-1-yl}-1,3-thiazole-5-carboxylic acid hydroxyamide] was 98%. As to `O=C(NO)c1cnc(N2CCN(S(=O)(=O)c3ccc(-c4cc(CN5CCCC5)co4)cc3)CC2)s1` [Example 309], testing at 100 µM gave an inhibition of 83%.

As for `COCCN(C)Cc1cccc(-c2ccc(S(=O)(=O)N3CCN(c4ncc(C(=O)NO)s4)CC3)cc2)c1` [Example 316, 2-{4-[3′-{[(2-methoxyethyl)(methyl)amino]methyl}-1,1′-biphenylsulfonyl]piperazin-1-yl}-1,3-thiazole-5-carboxylic acid hydroxyamide], 100 µM produced 97% inhibition. The same measure, in the same setting: the result for `O=C(NO)c1cnc(N2CCN(S(=O)(=O)C(F)(F)F)CC2)s1` [Example 331, 2-{4-[(trifluoromethyl)sulfonyl]piperazin-1-yl}-1,3-thiazole-5-carboxylic acid hydroxyamide] reads 76%.

Take `Cc1ccc(S(=O)(=O)N2CCN(c3ncc(C(=O)NO)s3)CC2)cc1` [Example 204, 2-[4-(4-toluene-4-sulfonyl)-piperazin-1-yl]-thiazole-5-carboxylic acid hydroxyamide]: the “% inhibition MCF7 cells @ 100 μM” value stood at 95.4%.

In turn, `CC(=O)NCc1cccc(-c2ccc(S(=O)(=O)N3CCN(c4ncc(C(=O)NO)s4)CC3)cc2)c1` [Example 319, 2-{4-[3′-{[N-acetylamino]methyl}-1,1′-biphenylsulfonyl]piperazin-1-yl}-1,3-thiazole-5-carboxylic acid hydroxyamide] gave an inhibition at 100 µM of 89%. Still for that read-out and setting: the result for `CCS(=O)(=O)N1CCN(c2ncc(C(=O)NO)s2)CC1` [Example 332, 2-{4-[ethylsulfonyl]piperazin-1-yl}-1,3-thiazole-5-carboxylic acid hydroxyamide] reads 30%; that for `Cc1ccc(C)c(S(=O)(=O)N2CCN(c3ncc(C(=O)NO)s3)CC2)c1` [Example 326, 2-{4-[(2,5-dimethylphenyl)sulfonyl]piperazin-1-yl}-1,3-thiazole-5-carboxylic acid hydroxyamide], 98%. The same measure, in the same setting: the value for `COCc1cccc(-c2ccc(S(=O)(=O)N3CCN(c4ncc(C(=O)NO)s4)CC3)cc2)c1` [Example 320, 2-{4-[3′-{methoxymethyl}-1,1′-biphenylsulfonyl]piperazin-1-yl}-1,3-thiazole-5-carboxylic acid hydroxyamide] was 92%. The same measure, in the same setting: the value for `CNCc1cccc(-c2ccc(S(=O)(=O)N3CCN(c4ncc(C(=O)NO)s4)CC3)cc2)c1` [Example 318, 2-{4-[3′-{[methylamino]methyl}-1,1′-biphenylsulfonyl]piperazin-1-yl}-1,3-thiazole-5-carboxylic acid hydroxyamide] was 86%.
